Molecules are shown by their SMILES.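 Compound exposure: 48 hours, 5 concentrations, 96-well plates. The concentration for 50% growth inhibition is given as GI50.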 Active and inactive are the calls of the source. No stated cut-off is given here; in the data, active = GI50 up to about 1.1 µM and inactive = higher.

Some test systems named below: SF-539; NCI-H23; SNB-75; HOP-92; UO-31; RXF 393; HT-29; HL-60; SN12C; M14; SW-620; NCI-H226; OVCAR-3; OVCAR-8; A549; TK-10; SF-295; KM12; SR.
Experiment in all cases: NCI-60 cell line screen, 48 h

Take `O=C(O)[C@@H](NS(=O)(=O)c1ccc2ccccc2c1)c1ccccc1`: the GI50 with SF-539, in the test on NCI-H23, in the test on SNB-75, with HOP-92, in the test on UO-31 and in the test with RXF 393 was > 100 µM (inactive) in each case. The GI50 in the test with HT-29, with HL-60, with SN12C and in the test with M14 was > 100 µM (inactive) each time.
For the compound `CC(=O)Nc1ccc(/C=C/C(=O)c2sc(C(N)=S)nc2C)cc1`, the GI50 in the test with SF-539, in the test with NCI-H23, with SW-620, in the test with SNB-75, in the test with HOP-92 and in the test with UO-31 was > 100 µM (inactive) throughout. Besides, the GI50 in the test with NCI-H226, in the test on OVCAR-3, in the test on RXF 393, with HT-29, in the test with OVCAR-8 and with HL-60 was > 100 µM (inactive) throughout. The GI50 in the test with A549, in the test on TK-10, in the test on SN12C, in the test with SF-295 and in the test on KM12 was > 100 µM (inactive) throughout.
As to `Cc1ccc(S(=O)(=O)c2c(N)n(CCN(C)C)c3nc4ccccc4nc23)cc1`, the GI50 with SF-539, with NCI-H23, with SNB-75, in the test with HOP-92, in the test with UO-31 and with NCI-H226 was > 100 µM (inactive) throughout. The GI50 is > 100 µM (inactive) in the test with OVCAR-3; > 100 µM (inactive) in the test with HT-29; > 100 µM (inactive) in the test on OVCAR-8; > 100 µM (inactive) with HL-60; > 100 µM (inactive) with A549; 99.8 µM (inactive) with TK-10. For the same compound, the GI50 was > 100 µM (inactive) in the test with SN12C, > 100 µM (inactive) in the test on SF-295, > 100 µM (inactive) in the test with M14 and 45.1 µM (inactive) in the test with KM12.
Consider `COC(=O)C(=O)C(C(=O)C=C(C)C)C(=O)C(=O)Nc1nc2ccc([N+](=O)[O-])cc2s1` (centres undefined), for which the GI50 was 36.6 µM (inactive) in the test on SF-539; 24.9 µM (inactive) in the test with NCI-H23; > 100 µM (inactive) in the test on SW-620; 21.4 µM (inactive) in the test with SNB-75; 27.3 µM (inactive) in the test with HOP-92; 41.5 µM (inactive) in the test with UO-31. In addition, the GI50 is 46.1 µM (inactive) with NCI-H226; 44.6 µM (inactive) in the test on OVCAR-3; 12.9 µM (inactive) in the test on RXF 393; > 100 µM (inactive) in the test on HT-29; > 100 µM (inactive) in the test with OVCAR-8; 35.4 µM (inactive) with HL-60. Further, the GI50 in the test on A549 is 78.7 µM (inactive); in the test on TK-10, 38.5 µM (inactive); with SN12C it was 37.9 µM (inactive); in the test with M14, 52 µM (inactive); in the test with KM12, 98.9 µM (inactive).
On to `c1cnc2c(c1)-n1cccc1C1(CCCCC1)NN2`, for which the GI50 was > 100 µM (inactive) in the test on SF-539; > 100 µM (inactive) in the test with SW-620; > 100 µM (inactive) in the test on SNB-75; 26.9 µM (inactive) in the test on UO-31; > 100 µM (inactive) in the test on NCI-H226; 86.3 µM (inactive) in the test on OVCAR-3. Moreover, the GI50 is > 100 µM (inactive) with HT-29; > 100 µM (inactive) in the test on OVCAR-8; 93.8 µM (inactive) with HL-60; 54 µM (inactive) with A549; 40 µM (inactive) in the test on SR; 75.3 µM (inactive) in the test on TK-10. The GI50 with SN12C was > 100 µM (inactive); in the test with SF-295, 69.2 µM (inactive); in the test on M14 it was > 100 µM (inactive); in the test with KM12 it was 99.1 µM (inactive).
As for `O=C1/C(=C/c2ccc3c(c2)OCO3)SC2C=Nc3ccccc3N12` (centres undefined), the GI50 was 86.1 µM (inactive) with SF-539; > 100 µM (inactive) in the test with NCI-H23; > 100 µM (inactive) in the test with SW-620; 28.9 µM (inactive) in the test on SNB-75; > 100 µM (inactive) with HOP-92; > 100 µM (inactive) in the test on UO-31. Further, the GI50 in the test on NCI-H226, in the test with OVCAR-3, in the test with RXF 393, with HT-29, in the test with OVCAR-8 and in the test on A549 was > 100 µM (inactive) in each case. Moreover, the GI50 in the test with TK-10, in the test with SN12C, in the test with SF-295, with M14 and with KM12 was > 100 µM (inactive) in each case.
With `COC(=O)C(CCC#N)(CCC#N)C(=O)OC`, the GI50 in the test with SF-539, in the test on NCI-H23, with SW-620, in the test with UO-31, in the test with NCI-H226 and with OVCAR-3 was > 100 µM (inactive) each time. The GI50 with HT-29, with OVCAR-8, with HL-60, in the test on A549, with SR and in the test with SN12C was > 100 µM (inactive) each time. The GI50 with SF-295, in the test on M14 and in the test with KM12 was > 100 µM (inactive) in each case.
`CN1CCC23c4c5ccc(O)c4OC2C(=NN=C2CCC4(O)C6Cc7ccc(O)c8c7C4(CCN6C)C2O8)CCC3(O)C1C5` (centres undefined): the GI50 in the test on SF-539, in the test on NCI-H23, in the test on SW-620, with SNB-75, in the test with HOP-92 and with UO-31 was > 100 µM (inactive) each time. Further, the GI50 with NCI-H226, with OVCAR-3, in the test with HT-29, in the test on OVCAR-8, in the test on HL-60 and with A549 was > 100 µM (inactive) throughout. The GI50 in the test with TK-10, in the test with SN12C, in the test with SF-295, in the test on M14 and in the test on KM12 was > 100 µM (inactive) each time.
Take `O=C1/C(=C(\Nc2ccccc2)c2ccccc2)C=NN1c1ccccc1`: the GI50 is > 100 µM (inactive) in the test with SF-539; 56.8 µM (inactive) with NCI-H23; > 100 µM (inactive) in the test with SW-620; > 100 µM (inactive) in the test on SNB-75; > 100 µM (inactive) with UO-31; 22.1 µM (inactive) in the test on RXF 393. The GI50 is 47.9 µM (inactive) in the test with HT-29; > 100 µM (inactive) in the test on OVCAR-8; 17.7 µM (inactive) in the test with HL-60; > 100 µM (inactive) with A549; > 100 µM (inactive) in the test on TK-10; > 100 µM (inactive) in the test on SN12C. Also, the GI50 with SF-295, with M14 and in the test with KM12 was > 100 µM (inactive) in each case.
Regarding `C=CCNC(=O)NCCCC(NC(C)=O)C(=O)NCc1ccccc1` (centres undefined), the GI50 in the test with SF-539, in the test with NCI-H23, in the test on SW-620, in the test with SNB-75, with HOP-92 and in the test on UO-31 was > 100 µM (inactive) throughout. The GI50 in the test on NCI-H226, in the test on OVCAR-3, in the test with RXF 393, with HT-29, in the test with OVCAR-8 and with HL-60 was > 100 µM (inactive) throughout. Moreover, the GI50 in the test with A549, in the test on TK-10, with SN12C, with SF-295, with M14 and with KM12 was > 100 µM (inactive) each time.
Consider `Nc1c(-c2ccc(Cl)cc2Cl)[n+]([O-])c2ccccc2[n+]1[O-]`, for which the GI50 in the test on SF-539 is > 100 µM (inactive); in the test on NCI-H23 it was > 100 µM (inactive); in the test with SW-620, > 100 µM (inactive); with SNB-75, 48.2 µM (inactive); with UO-31 it was > 100 µM (inactive); in the test on NCI-H226, > 100 µM (inactive). For the same compound, the GI50 in the test on OVCAR-3, with HT-29, in the test on OVCAR-8, in the test on HL-60, with A549 and in the test on TK-10 was > 100 µM (inactive) each time. The GI50 in the test on SN12C, in the test on SF-295, in the test on M14 and in the test on KM12 was > 100 µM (inactive) in each case.
In the case of `CC(C)(CN1CCCCC1)C(=O)CC(SCCS(=O)(=O)O)c1ccc(Br)cc1` (centres undefined), the GI50 with SF-539 is 1.6 µM (inactive); with NCI-H23 it was 2.34 µM (inactive); with SNB-75, 2.07 µM (inactive); in the test on HOP-92 it was 0.578 µM (active); in the test on UO-31, 1.47 µM (inactive); in the test with NCI-H226, 3.26 µM (inactive). Besides, the GI50 in the test on RXF 393 was 1.41 µM (inactive); with HT-29, 1.75 µM (inactive); in the test with OVCAR-8, 2.38 µM (inactive); in the test on A549 it was 1.98 µM (inactive); in the test with TK-10 it was 2.56 µM (inactive); in the test with SN12C it was 1.34 µM (inactive). Also, the GI50 in the test with SF-295 was 5.12 µM (inactive); with M14, 1.59 µM (inactive); with KM12, 2 µM (inactive).

Values taken from ChEMBL document CHEMBL1201862, “PubChem BioAssay data set” (2004).
